# Results taken from ChEMBL document CHEMBL2390843, “Design, synthesis and antitumour activity of bisquinoline derivatives connected by 4-oxy-3-fluoroaniline moiety” (Eur J Med Chem, 2013).
# Tests used:
# [1] = Cytotoxicity against human H460 cells after 72 hrs by MTT assay; details: NCI-H460, 72 h
# HT-29 = test: Cytotoxicity against human HT-29 cells after 72 hrs by MTT assay; details: HT-29, 72 h
# SMMC-7721 = test: Cytotoxicity against human SMMC7721 cells after 72 hrs by MTT assay; details: SMMC-7721, 72 h
# MKN-45 = test: Cytotoxicity against human MKN45 cells after 72 hrs by MTT assay; details: MKN-45, 72 h
# [2] = Cytotoxicity against human U87MG cells after 72 hrs by MTT assay; format: functional, cell-based, U-87MG ATCC; details: U-87 MG
SMILES,IC50 [1] [nM],IC50 (HT-29) [nM],IC50 (SMMC-7721) [nM],IC50 (MKN-45) [nM],IC50 [2] [nM]
COc1cccc(-c2cc(C(=O)Nc3ccc(Oc4ccnc5cc(OCCCN6CCOCC6)c(OC)cc45)c(F)c3)c3ccccc3n2)c1,560,3050,1130,110,–
COc1cc2c(Oc3ccc(NC(=O)c4cc(-c5ccc(C)cc5)nc5ccccc45)cc3F)ccnc2cc1OCCCN1CCOCC1,1100,3560,1520,830,–
COc1cc2c(Oc3ccc(NC(=O)c4cc(-c5ccc(C)cc5)nc5ccc(F)cc45)cc3F)ccnc2cc1OCCCN1CCOCC1,440,390,–,320,820
COc1cc2c(Oc3ccc(NC(=O)c4cc(-c5cccc(Cl)c5)nc5ccc(F)cc45)cc3F)ccnc2cc1OCCCN1CCC(C)CC1,60,92,–,10,110
COc1cc2c(Oc3ccc(NC(=O)c4cc(-c5ccc(C)cc5)nc5ccc(F)cc45)cc3F)ccnc2cc1OCCCN1CCCCC1,260,500,–,170,1050
COc1cccc(-c2cc(C(=O)Nc3ccc(Oc4ccnc5cc(OCCCN6CCCCC6)c(OC)cc45)c(F)c3)c3ccccc3n2)c1,210,1740,380,360,–
COc1cc2c(Oc3ccc(NC(=O)c4cc(-c5ccc(F)cc5)nc5ccc(F)cc45)cc3F)ccnc2cc1OCCCN1CCOCC1,27,250,–,51,2150
COc1ccc(-c2cc(C(=O)Nc3ccc(Oc4ccnc5cc(OCCCN6CCOCC6)c(OC)cc45)c(F)c3)c3ccccc3n2)cc1,750,3190,1180,160,–
COc1cc2c(Oc3ccc(NC(=O)c4cc(-c5ccccc5)nc5ccccc45)cc3F)ccnc2cc1OCCCN1CCC(C)CC1,68,120,160,19,920
COc1cc2c(Oc3ccc(NC(=O)c4cc(-c5ccc(F)cc5)nc5ccccc45)cc3F)ccnc2cc1OCCCN1CCCCC1,21,130,74,28,980
COc1cc2c(Oc3ccc(NC(=O)c4cc(-c5cccc(Cl)c5)nc5ccc(F)cc45)cc3F)ccnc2cc1OCCCN1CCOCC1,68,1200,–,60,1060
COc1cc2c(Oc3ccc(NC(=O)c4cc(-c5ccc(C(F)(F)F)cc5)nc5ccccc45)cc3F)ccnc2cc1OCCCN1CCOCC1,68,230,100,12,1010
COc1cc2c(Oc3ccc(NC(=O)c4cc(-c5cccc(Cl)c5)nc5ccccc45)cc3F)ccnc2cc1OCCCN1CCCCC1,11,62,30,11,150
COc1cc2c(Oc3ccc(NC(=O)c4cc(-c5cccc(Cl)c5)nc5ccccc45)cc3F)ccnc2cc1OCCCN1CCOCC1,80,1080,320,35,1470
COc1cccc(-c2cc(C(=O)Nc3ccc(Oc4ccnc5cc(OCCCN6CCC(C)CC6)c(OC)cc45)c(F)c3)c3cc(F)ccc3n2)c1,840,1210,–,730,840
COc1cccc(-c2cc(C(=O)Nc3ccc(Oc4ccnc5cc(OCCCN6CCCC6)c(OC)cc45)c(F)c3)c3ccccc3n2)c1,290,1020,790,430,–
COc1ccc(-c2cc(C(=O)Nc3ccc(Oc4ccnc5cc(OCCCN6CCC(C)CC6)c(OC)cc45)c(F)c3)c3ccccc3n2)cc1,110,1110,450,320,–

SMILES,IC50 [1] [nM],IC50 (HT-29) [nM],IC50 (SMMC-7721) [nM],IC50 (MKN-45) [nM],IC50 [2] [nM]
COc1cc2c(Oc3ccc(NC(=O)c4cc(-c5cccc(Cl)c5)nc5ccccc45)cc3F)ccnc2cc1OCCCN1CCC(C)CC1,65,100,80,30,580
COc1cc2c(Oc3ccc(NC(=O)c4cc(-c5ccc(C)cc5)nc5ccccc45)cc3F)ccnc2cc1OCCCN1CCCC1,240,850,520,300,–
COc1cc2c(Oc3ccc(NC(=O)c4cc(-c5ccc(Cl)cc5Cl)nc5ccc(F)cc45)cc3F)ccnc2cc1OCCCN1CCCCC1,310,530,–,250,1040
COc1ccc(-c2cc(C(=O)Nc3ccc(Oc4ccnc5cc(OCCCN6CCCCC6)c(OC)cc45)c(F)c3)c3ccccc3n2)cc1,290,690,210,210,1360
COc1cc2c(Oc3ccc(NC(=O)c4cc(-c5ccccc5)nc5ccc(F)cc45)cc3F)ccnc2cc1OCCCN1CCCC1,90,160,–,110,960
COc1cc2c(Oc3ccc(NC(=O)c4cc(-c5ccccc5)nc5ccccc45)cc3F)ccnc2cc1OCCCN1CCCCC1,110,530,290,15,1490
COc1ccc(-c2cc(C(=O)Nc3ccc(Oc4ccnc5cc(OCCCN6CCCC6)c(OC)cc45)c(F)c3)c3cc(F)ccc3n2)cc1,250,610,–,170,930
COc1cc2c(Oc3ccc(NC(=O)c4cc(-c5ccc(C)cc5)nc5ccccc45)cc3F)ccnc2cc1OCCCN1CCC(C)CC1,880,3150,1260,770,–
COc1cc2c(Oc3ccc(NC(=O)c4cc(-c5ccc(C)cc5)nc5ccc(F)cc45)cc3F)ccnc2cc1OCCCN1CCC(C)CC1,480,420,–,260,2000
COc1ccc(-c2cc(C(=O)Nc3ccc(Oc4ccnc5cc(OCCCN6CCCCC6)c(OC)cc45)c(F)c3)c3cc(F)ccc3n2)cc1,240,600,–,260,1100
COc1cc2c(Oc3ccc(NC(=O)c4cc(-c5ccccc5)nc5ccccc45)cc3F)ccnc2cc1OCCCN1CCOCC1,190,1520,330,91,1140
COc1cccc(-c2cc(C(=O)Nc3ccc(Oc4ccnc5cc(OCCCN6CCCCC6)c(OC)cc45)c(F)c3)c3cc(F)ccc3n2)c1,1000,2500,–,690,1610
COc1cc2c(Oc3ccc(NC(=O)c4cc(-c5ccc(Cl)c(Cl)c5)nc5ccccc45)cc3F)ccnc2cc1OCCCN1CCCCC1,820,1210,770,730,–
COc1cc2c(Oc3ccc(NC(=O)c4cc(-c5ccccc5)nc5ccc(F)cc45)cc3F)ccnc2cc1OCCCN1CCCCC1,32,120,–,30,690
COc1cc2c(Oc3ccc(NC(=O)c4cc(-c5cccc(Cl)c5)nc5ccc(F)cc45)cc3F)ccnc2cc1OCCCN1CCCC1,72,670,–,67,990
COc1cc2c(Oc3ccc(NC(=O)c4cc(-c5ccc(Cl)c(Cl)c5)nc5ccccc45)cc3F)ccnc2cc1OCCCN1CCCC1,400,1960,340,170,–
